The target in test [1] is PI3Kα (His-PIK3CA/PIK3R1, p110 alpha/p85 alpha) (Homo sapiens (Human), UniProt P42336). In words: PI3Kα biochemical assay (HTRF/FRET probe). The format is binding. The note with it: class symbol. The method, then: Phosphoinositide 3-kinase α (PI3Kα) Biochemical Assay: A solution was prepared containing 0.2 nM Anti-HIS-Terbium (Cisbio, 64CUSTAZU), 3.7 nM designed-probe and 1.0 nM His-PIK3CA/PIK3R1 (p110 alpha/p85 alpha) in FRET Buffer (20 mM HEPES, 10 mM MgCl2, 0.015% Brij-35, 4 mM DTT, 0.05 mg/mL BSA).
Chain of PI3Kα (His-PIK3CA/PIK3R1, p110 alpha/p85 alpha) (P42336 whole entry, species assumed): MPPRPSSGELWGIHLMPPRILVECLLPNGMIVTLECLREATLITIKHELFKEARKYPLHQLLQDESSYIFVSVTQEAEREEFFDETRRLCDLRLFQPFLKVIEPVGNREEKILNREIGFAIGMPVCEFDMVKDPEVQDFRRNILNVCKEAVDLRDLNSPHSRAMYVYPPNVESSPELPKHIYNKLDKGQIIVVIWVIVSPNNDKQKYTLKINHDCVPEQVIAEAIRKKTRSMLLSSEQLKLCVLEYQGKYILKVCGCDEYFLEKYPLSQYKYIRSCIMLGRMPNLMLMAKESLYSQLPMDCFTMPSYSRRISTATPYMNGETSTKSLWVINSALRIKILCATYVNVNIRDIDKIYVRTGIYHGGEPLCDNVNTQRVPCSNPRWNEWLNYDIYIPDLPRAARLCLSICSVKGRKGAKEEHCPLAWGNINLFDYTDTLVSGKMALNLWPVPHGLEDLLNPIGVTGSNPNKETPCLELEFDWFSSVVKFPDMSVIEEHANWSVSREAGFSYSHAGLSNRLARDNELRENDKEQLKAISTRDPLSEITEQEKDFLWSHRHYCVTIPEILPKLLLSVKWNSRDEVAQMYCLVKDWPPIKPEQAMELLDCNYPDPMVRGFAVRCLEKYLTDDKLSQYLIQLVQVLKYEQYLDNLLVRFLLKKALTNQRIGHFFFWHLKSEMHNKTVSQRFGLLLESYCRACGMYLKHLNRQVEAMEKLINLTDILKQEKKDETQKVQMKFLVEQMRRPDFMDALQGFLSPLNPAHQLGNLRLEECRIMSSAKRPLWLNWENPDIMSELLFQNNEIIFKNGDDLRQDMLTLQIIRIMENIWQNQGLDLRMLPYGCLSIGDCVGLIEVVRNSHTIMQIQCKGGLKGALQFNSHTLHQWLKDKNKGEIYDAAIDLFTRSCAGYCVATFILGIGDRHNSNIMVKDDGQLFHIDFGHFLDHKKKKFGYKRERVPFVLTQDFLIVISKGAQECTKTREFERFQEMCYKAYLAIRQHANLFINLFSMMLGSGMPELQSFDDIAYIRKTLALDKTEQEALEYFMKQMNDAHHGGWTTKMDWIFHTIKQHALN
Chain of PI3Kα (His-PIK3CA/PIK3R1, p110 alpha/p85 alpha) (P27986 whole entry partner, species assumed): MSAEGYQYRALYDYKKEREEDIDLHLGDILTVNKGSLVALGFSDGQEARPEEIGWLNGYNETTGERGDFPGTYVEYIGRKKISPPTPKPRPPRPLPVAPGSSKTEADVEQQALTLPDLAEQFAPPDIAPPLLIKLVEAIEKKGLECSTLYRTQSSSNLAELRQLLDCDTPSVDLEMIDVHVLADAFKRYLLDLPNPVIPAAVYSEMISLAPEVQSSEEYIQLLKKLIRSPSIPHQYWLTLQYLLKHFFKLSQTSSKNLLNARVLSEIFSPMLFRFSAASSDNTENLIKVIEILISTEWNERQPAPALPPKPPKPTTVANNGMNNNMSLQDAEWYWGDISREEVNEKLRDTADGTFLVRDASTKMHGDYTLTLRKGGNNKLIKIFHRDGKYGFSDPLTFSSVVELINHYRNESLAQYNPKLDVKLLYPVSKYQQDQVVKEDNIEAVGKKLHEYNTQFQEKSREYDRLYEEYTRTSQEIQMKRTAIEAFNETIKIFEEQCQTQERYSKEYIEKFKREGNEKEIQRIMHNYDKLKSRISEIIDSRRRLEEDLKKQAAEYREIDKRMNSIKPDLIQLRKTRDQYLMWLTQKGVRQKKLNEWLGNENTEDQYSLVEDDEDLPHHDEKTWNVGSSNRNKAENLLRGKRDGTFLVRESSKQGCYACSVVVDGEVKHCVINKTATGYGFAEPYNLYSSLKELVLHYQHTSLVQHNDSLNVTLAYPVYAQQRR
For orientation: In TR-FRET formats the signal depends on donor and acceptor labels being close together.

In test [2] the target is PI3Kδ (His-PIK3CD/PIK3R1, p110 delta/p85 alpha) (Homo sapiens (Human), UniProt O00329). In words: PI3Kδ biochemical assay (HTRF/FRET probe). The format is binding. As to conditions: class symbol. The method, then: Phosphoinositide 3-kinase (PI3K) Biochemical Assay: A solution was prepared containing 0.2 nM Anti-HIS-Terbium (Cisbio, 64CUSTAZU), 40 nM designed-probe and 1.0 nM His-PIK3CD/PIK3R1 (p110 delta/p85 alpha) in FRET Buffer (20 mM HEPES, 10 mM MgCl2, 0.015% Brij-35, 4 mM DTT, 0.05 mg/mL BSA).

A further test has as its target DNA-PK (Homo sapiens (Human), UniProt P78527). The test can be described thus: DNA-PK biochemical assay (Reaction Biology HotSpot kinase assay, 10 μM ATP). Here is the method:
DNA-PK Biochemical Assay Using Reaction Biology's HotSpot Kinase Assay Protocol:
Reagent: Base Reaction buffer; 20 mM Hepes (pH 7.5), 10 mM MgCl2, 1 mM EGTA, 0.01% Brij35, 0.02 mg/ml BSA, 0.1 mM Na3VO4, 2 mM DTT, 1% DMSO Required cofactors are added individually to each kinase reaction.
Reaction Procedure: 1. Prepare substrate in freshly prepared Reaction Buffer; 2. Deliver any required cofactors to the substrate solution above; 3. Deliver kinase into the substrate solution and gently mix; 4. Deliver compounds in 100% DMSO into the kinase reaction mixture by Acoustic technology (Echo550; nanoliter range), incubate for 20 min at room temperature; 5. Deliver 33P-ATP into the reaction mixture to initiate the reaction; 6. Incubate for 2 hours at room temperature; 7. Detect kinase activity by P81 filter-binding method.

The target in another test is ATM (Homo sapiens (Human), UniProt Q13315). In words: ATM biochemical assay (Reaction Biology HTRF kinase assay, 10 μM ATP). The method, then:
Ataxia-Telangiectasia Mutated (ATM) Biochemical Assay Using Reaction Biology's HTRF Kinase Assay Protocol:
The assay detects kinase activity by antibody based HTRF assay. The GST-tagged p53 protein serves as substrate and Eu-labeled-antibody with specific phosphorylation site binds upon phosphorylation which is monitored by HTRF from the anti-GST-d2.
Reagent: Reaction buffer; 50 mM Hepes (pH 7.5), 150 mM NaCl, 10 mM MnCl2, 1% Glycerol, 0.01% Brij35, 1 mM DTT, 1% DMSO.
Substrate: Human p53 (aa2-393), RBC produced in E. coli, N-terminal GST-Tag, MW=70.42 kDa.
Detection; MAb Anti-p53-pS15-Eu cryptate, CisBio cat #61P08KAZ; MAb Anti GST-d2
Reaction Procedure: 1. Deliver 2× Enzyme in wells of reaction plate except No E control wells. Add buffer instead; 2. Deliver compounds in 100% DMSO into the kinase reaction mixture by Acoustic technology (Echo550; nanoliter range), incubate for 30 min at room temperature; 3. Deliver 2× substrate+ATP mixture into the reaction mixture to initiate the reaction; 4. Incubate for 2 hours at room temperature.
HTRF Detection: 1. Deliver 2× Stop/Detection mixture and incubate for 2 hours to overnight in the dark. 2. HTRF measurement (Ex/Em1/Em2=320/615/665 nm) in EnVision.

The mark [3] stands for this setting: read-out: ATM HTRF 10 μM ATP IC50, class symbol.
[4] abbreviates: read-out: DNA-PK HotSpot 10 μM ATP IC50, class symbol.

Like-named read-outs stand apart in the source and are kept apart here. Where only a bound is given, the exact number is not on record here.

By IC50 is commonly meant the point on the concentration scale where inhibition reaches its midpoint.

Chain of ATM (Q13315 whole entry): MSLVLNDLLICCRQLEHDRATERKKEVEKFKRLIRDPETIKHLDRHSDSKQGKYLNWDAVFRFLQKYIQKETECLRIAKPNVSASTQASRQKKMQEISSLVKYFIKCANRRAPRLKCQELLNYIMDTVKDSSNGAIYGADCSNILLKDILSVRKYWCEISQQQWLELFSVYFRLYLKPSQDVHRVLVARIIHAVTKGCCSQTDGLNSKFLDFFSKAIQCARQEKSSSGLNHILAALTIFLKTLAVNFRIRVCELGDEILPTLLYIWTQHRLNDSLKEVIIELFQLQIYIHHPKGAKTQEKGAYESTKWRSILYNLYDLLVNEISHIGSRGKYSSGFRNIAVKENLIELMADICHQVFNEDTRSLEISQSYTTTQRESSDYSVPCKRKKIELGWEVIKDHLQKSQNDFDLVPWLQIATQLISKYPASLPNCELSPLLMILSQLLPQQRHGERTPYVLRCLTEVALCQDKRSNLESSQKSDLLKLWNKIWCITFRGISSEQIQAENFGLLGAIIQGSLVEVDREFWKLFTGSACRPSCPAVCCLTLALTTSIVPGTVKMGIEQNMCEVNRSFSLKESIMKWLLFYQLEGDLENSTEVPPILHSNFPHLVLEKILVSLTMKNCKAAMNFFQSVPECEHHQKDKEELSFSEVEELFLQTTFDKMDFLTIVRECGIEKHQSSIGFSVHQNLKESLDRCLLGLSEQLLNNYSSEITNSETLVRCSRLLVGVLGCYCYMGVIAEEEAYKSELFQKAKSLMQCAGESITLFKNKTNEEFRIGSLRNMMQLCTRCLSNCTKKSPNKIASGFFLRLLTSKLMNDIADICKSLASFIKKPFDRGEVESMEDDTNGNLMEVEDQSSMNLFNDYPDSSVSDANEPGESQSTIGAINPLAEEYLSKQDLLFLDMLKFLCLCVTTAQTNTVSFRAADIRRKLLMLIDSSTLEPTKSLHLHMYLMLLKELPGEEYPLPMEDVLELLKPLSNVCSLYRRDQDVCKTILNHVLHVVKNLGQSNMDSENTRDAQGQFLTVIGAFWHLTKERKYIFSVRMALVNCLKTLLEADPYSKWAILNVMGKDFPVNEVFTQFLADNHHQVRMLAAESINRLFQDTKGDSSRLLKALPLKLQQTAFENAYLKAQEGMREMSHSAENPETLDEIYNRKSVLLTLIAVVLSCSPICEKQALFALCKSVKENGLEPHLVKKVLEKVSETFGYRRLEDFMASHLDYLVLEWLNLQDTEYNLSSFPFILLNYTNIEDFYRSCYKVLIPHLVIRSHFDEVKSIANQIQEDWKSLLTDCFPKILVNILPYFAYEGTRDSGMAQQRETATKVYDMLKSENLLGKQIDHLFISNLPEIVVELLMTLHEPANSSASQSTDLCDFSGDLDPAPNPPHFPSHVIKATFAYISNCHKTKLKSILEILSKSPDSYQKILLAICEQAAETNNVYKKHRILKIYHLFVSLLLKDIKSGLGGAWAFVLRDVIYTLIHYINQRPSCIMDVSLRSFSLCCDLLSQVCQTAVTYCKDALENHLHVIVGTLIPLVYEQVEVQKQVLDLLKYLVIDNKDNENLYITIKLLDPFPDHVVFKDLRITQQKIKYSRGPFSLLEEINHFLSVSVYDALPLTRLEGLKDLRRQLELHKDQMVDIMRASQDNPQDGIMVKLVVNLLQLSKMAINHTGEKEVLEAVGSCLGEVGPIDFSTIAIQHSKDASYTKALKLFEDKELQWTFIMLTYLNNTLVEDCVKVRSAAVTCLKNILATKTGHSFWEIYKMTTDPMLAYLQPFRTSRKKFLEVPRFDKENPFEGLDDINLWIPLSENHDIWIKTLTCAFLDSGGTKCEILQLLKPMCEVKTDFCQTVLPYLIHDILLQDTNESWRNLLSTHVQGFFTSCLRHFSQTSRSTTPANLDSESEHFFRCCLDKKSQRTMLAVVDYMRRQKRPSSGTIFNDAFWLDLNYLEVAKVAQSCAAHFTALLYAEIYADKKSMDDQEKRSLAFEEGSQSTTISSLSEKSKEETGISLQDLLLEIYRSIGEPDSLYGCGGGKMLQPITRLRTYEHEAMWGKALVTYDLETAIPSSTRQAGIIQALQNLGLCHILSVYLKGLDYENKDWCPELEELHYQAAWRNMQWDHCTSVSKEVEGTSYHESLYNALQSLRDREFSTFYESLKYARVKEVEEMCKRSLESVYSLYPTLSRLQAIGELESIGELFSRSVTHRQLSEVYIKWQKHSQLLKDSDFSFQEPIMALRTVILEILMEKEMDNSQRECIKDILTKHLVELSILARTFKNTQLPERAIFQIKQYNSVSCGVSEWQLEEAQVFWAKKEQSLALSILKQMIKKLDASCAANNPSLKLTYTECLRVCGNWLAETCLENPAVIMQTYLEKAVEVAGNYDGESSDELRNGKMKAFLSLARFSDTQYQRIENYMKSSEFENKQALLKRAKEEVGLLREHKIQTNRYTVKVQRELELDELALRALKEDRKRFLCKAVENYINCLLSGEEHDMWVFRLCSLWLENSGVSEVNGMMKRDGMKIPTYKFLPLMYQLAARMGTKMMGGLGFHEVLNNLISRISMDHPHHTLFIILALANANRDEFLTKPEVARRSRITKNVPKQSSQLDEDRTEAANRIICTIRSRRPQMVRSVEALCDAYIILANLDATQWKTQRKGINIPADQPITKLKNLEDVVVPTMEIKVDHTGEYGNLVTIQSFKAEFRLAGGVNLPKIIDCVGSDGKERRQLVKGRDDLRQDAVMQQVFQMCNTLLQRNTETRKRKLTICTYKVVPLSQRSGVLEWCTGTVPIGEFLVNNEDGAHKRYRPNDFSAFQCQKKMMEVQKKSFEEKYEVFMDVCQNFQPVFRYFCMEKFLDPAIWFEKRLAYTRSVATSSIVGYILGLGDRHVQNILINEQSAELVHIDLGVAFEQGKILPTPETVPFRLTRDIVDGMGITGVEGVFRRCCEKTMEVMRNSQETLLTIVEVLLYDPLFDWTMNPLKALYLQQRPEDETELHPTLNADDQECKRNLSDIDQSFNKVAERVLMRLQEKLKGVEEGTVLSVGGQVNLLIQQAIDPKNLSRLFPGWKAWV

Take `Cc1cc2c(cc1Nc1ncc3c(C)nn(C45CC(C4)C5)c3n1)OCO2` [Compound 48, 1-(bicyclo[1.1.1]pentan-1-yl)-3-methyl-N-(6-methylbenzo[d][1,3]dioxol-5-yl)-1H-pyrazolo[3,4-d]pyrimidin-6-amine]: the IC50 was no less than 1000 nM in test [1], no less than 1000 nM in test [2], 1 to 10 nM on DNA-PK (class symbol) and 100 to 1000 nM against ATM (class symbol).

Consider `Cc1cc2nccnc2cc1Nc1ncc2c(n1)n(C13CCC(O)(CC1)C3)c(=S)n2C` [Compound 33, 9-(4-hydroxybicyclo[2.2.1]heptan-1-yl)-7-methyl-2-((7-methylquinoxalin-6-yl)amino)-7,9-dihydro-8H-purine-8-thione], for which the concentration for half-maximal inhibition (IC50) was 100 to 1000 nM in test [1], 10 to 100 nM in test [2], 1 to 10 nM against DNA-PK (class symbol) and 100 to 1000 nM on ATM (class symbol).

Take `Cc1cc(-c2cnn(C)c2)ncc1Nc1ncc2c(n1)N(C13CC(F)(C1)C3)C(=O)C21CC1` [Compound 75, 7′-(3-fluorobicyclo[1.1.1]pentan-1-yl)-2′-((4-methyl-6-(1-methyl-1H-pyrazol-4-yl)pyridin-3-yl)amino)spiro[cyclopropane-1,5′-pyrrolo[2,3-d]pyrimidin]-6′(7′H)-one]: the concentration for half-maximal inhibition (IC50) was 100 to 1000 nM in test [1], no less than 1000 nM in test [2], 1 to 10 nM on DNA-PK (class symbol) and 10 to 100 nM on ATM (class symbol).

In the case of `Cc1cc2c(cc1Nc1ncc3c(n1)N(C14CC(F)(C1)C4)CC(=O)N3C)OCO2` [Compound 56, 8-{3-Fluorobicyclo[1.1.1]pentan-1-yl}-5-methyl-2-[(6-methyl-2H-1,3-benzodioxol-5-yl)amino]-5,6,7,8-tetrahydropteridin-6-one], the IC50 in test [1] was no less than 1000 nM; in test [2], no less than 1000 nM; at DNA-PK (class symbol) it was 10 to 100 nM; at ATM (setting [3]) it was no less than 1000 nM.

As for `Cc1cc2c(cc1Nc1ncc3c(n1)n(C14CCC(C#N)(CC1)CC4)c(=O)n3C)OCO2` [Compound 24, 4-(7-methyl-2-((6-methylbenzo[d][1,3]dioxol-5-yl)amino)-8-oxo-7,8-dihydro-9H-purin-9-yl) bicyclo[2.2.2]octane-1-carbonitrile], the IC50 in test [1] was 100 to 1000 nM; in test [2], no less than 1000 nM; on DNA-PK (setting [4]), less than 1 nM; against ATM (class symbol), 10 to 100 nM.

`COC12CCC(n3c(=O)n(C)c4cnc(Nc5cc6c(cc5C)OCCO6)nc43)(CC1)C2` [Compound 10, 9-(4-methoxybicyclo[2.2.1]heptan-1-yl)-7-methyl-2-((7-methyl-2,3-dihydrobenzo[b][1,4]dioxin-6-yl)amino)-7,9-dihydro-8H-purin-8-one]: the IC50 was 10 to 100 nM in test [1], no less than 1000 nM in test [2], less than 1 nM on DNA-PK (setting [4]) and 100 to 1000 nM on ATM (class symbol).

Turning to `Cc1cc2nsnc2cc1Nc1ncc2c(n1)n(C13CC(F)(C1)C3)c(=O)n2C` [Compound 14, 9-(3-fluorobicyclo[1.1.1]pentan-1-yl)-7-methyl-2-((6-methylbenzo[c][1,2,5]thiadiazol-5-yl)amino)-7,9-dihydro-8H-purin-8-one], the 50% inhibitory concentration (IC50) in test [1] was 100 to 1000 nM; in test [2], no less than 1000 nM; at DNA-PK (setting [4]), less than 1 nM; against ATM (class symbol) it was 100 to 1000 nM.

Consider `COC12CCC(n3c(=O)n(C)c4cnc(Nc5cc(F)c(C(N)=O)cc5C)nc43)(C1)C2` [Compound 40, 2-fluoro-4-((9-(4-methoxybicyclo[2.1.1]hexan-1-yl)-7-methyl-8-oxo-8,9-dihydro-7H-purin-2-yl)amino)-5-methylbenzamide], for which the IC50 in test [1] is 100 to 1000 nM; in test [2], no less than 1000 nM; against DNA-PK (class symbol) it was 1 to 10 nM; against ATM (class symbol), 100 to 1000 nM.

As for `Cc1cc2c(cc1Nc1ncc3c(n1)n(C14CC(F)(C1)C4)c(=O)n3C)OCCO2` [Compound 16, 9-(3-fluorobicyclo[1.1.1]pentan-1-yl)-7-methyl-2-((7-methyl-2,3-dihydrobenzo[b][1,4]dioxin-6-yl)amino)-7,9-dihydro-8H-purin-8-one], the 50% inhibitory concentration (IC50) in test [1] was no less than 1000 nM; in test [2], no less than 1000 nM; on DNA-PK (class symbol), 10 to 100 nM; on ATM (class symbol), 100 to 1000 nM.

Consider `Cc1cc2nccnc2cc1Nc1ncc2c(n1)n(C13CCC(O)(CC1)C3)c(=O)n2C` [Compound 4, 9-(4-hydroxybicyclo[2.2.1]heptan-1-yl)-7-methyl-2-((7-methylquinoxalin-6-yl)amino)-7,9-dihydro-8H-purin-8-one], for which the IC50 in test [1] is 100 to 1000 nM; in test [2], 100 to 1000 nM; at DNA-PK (setting [4]), less than 1 nM; at ATM (class symbol), 10 to 100 nM.

For `Cc1cc2nccnc2cc1Nc1ncc2c(n1)N(C13CC(F)(C1)C3)C(=O)C21CC1` [Compound 72, 7′-(3-fluorobicyclo[1.1.1]pentan-1-yl)-2′-((7-methylquinoxalin-6-yl)amino)spiro[cyclopropane-1,5′-pyrrolo[2,3-d]pyrimidin]-6′(7′H)-one], the half-maximal inhibitory concentration (IC50) is 100 to 1000 nM in test [1], no less than 1000 nM in test [2], less than 1 nM at DNA-PK (setting [4]) and 100 to 1000 nM on ATM (class symbol).

Take `Cc1cc2c(cc1Nc1ncc3c(n1)n(C14CCC(O)(CC1)C4)c(=S)n3C)OCO2` [Compound 32, 9-(4-hydroxybicyclo[2.2.1]heptan-1-yl)-7-methyl-2-((6-methylbenzo[d][1,3]dioxol-5-yl)amino)-7,9-dihydro-8H-purine-8-thione]: the IC50 was no less than 1000 nM in test [1], 1 to 10 nM at DNA-PK (class symbol) and no less than 1000 nM on ATM (setting [3]).

With `COC12CCC(n3c(=O)n(C)c4cnc(Nc5cc6c(cc5C)OCO6)nc43)(C1)C2` [Compound 28, 9-(4-methoxybicyclo[2.1.1]hexan-1-yl)-7-methyl-2-((6-methylbenzo[d][1,3]dioxol-5-yl)amino)-7,9-dihydro-8H-purin-8-one], the IC50 is no less than 1000 nM in test [2], 1 to 10 nM on DNA-PK (class symbol) and no less than 1000 nM on ATM (setting [3]).

With `Cc1cc2nsnc2cc1Nc1ncc2c(n1)N(C13CC(F)(C1)C3)CC(=O)N2C` [Compound 58, 8-(3-fluorobicyclo[1.1.1]pentan-1-yl)-5-methyl-2-((6-methylbenzo[c][1,2,5]thiadiazol-5-yl)amino)-7,8-dihydropteridin-6(5H)-one], the IC50 in test [1] was no less than 1000 nM; on DNA-PK (setting [4]) it was less than 1 nM; at ATM (class symbol) it was 100 to 1000 nM.

For `Cc1cc2ncccc2cc1Nc1ncc2c(n1)N(C13CCC(O)(CC1)C3)CC(=O)N2C` [Compound 53, 8-{4-Hydroxybicyclo[2.2.1]heptan-1-yl}-5-methyl-2-[(7-methylquinolin-6-yl)amino]-5,6,7,8-tetrahydropteridin-6-one], the values for the concentration for half-maximal inhibition (IC50) (in test [2]; at DNA-PK (setting [4]); on ATM (class symbol)) were 10 to 100 nM, less than 1 nM and 10 to 100 nM, respectively.

With `Cc1cc2nsnc2cc1Nc1ncc2c(n1)N(C13CCC(O)(CC1)C3)C(=O)C21CC1` [Compound 69, 7′-(4-hydroxybicyclo[2.2.1]heptan-1-yl)-2′-((6-methylbenzo[c][1,2,5]thiadiazol-5-yl)amino)spiro[cyclopropane-1,5′-pyrrolo[2,3-d]pyrimidin]-6′(7′H)-one], the IC50 was 10 to 100 nM in test [1], less than 1 nM at DNA-PK (setting [4]) and 10 to 100 nM against ATM (class symbol).

For `Cc1cc(-c2cnn(C)c2)c(F)cc1Nc1ncc2c(n1)n(C13CC(F)(C1)C3)c(=O)n2C` [Compound 38, 2-((5-fluoro-2-methyl-4-(1-methyl-1H-pyrazol-4-yl)phenyl)amino)-9-(3-fluorobicyclo[1.1.1]pentan-1-yl)-7-methyl-7,9-dihydro-8H-purin-8-one], the IC50 is no less than 1000 nM in test [2], 10 to 100 nM against DNA-PK (class symbol) and 10 to 100 nM against ATM (class symbol).

The values are drawn from patent publication US20250263753A1, “BRIDGED CYCLE-BASED INHIBITORS OF DNA-DEPENDENT PROTEIN KINASE AND COMPOSITIONS AND APPLICATION IN GENE EDITING” (Juno Therapeutics, Inc., priority 2023, published 2025).
